Measured values as given in ChEMBL document CHEMBL3351731, “Synthesis and cytotoxicity evaluation of 4-amino-4-dehydroxylarctigenin derivatives in glucose-starved A549 tumor cells” (Bioorg Med Chem Lett, 2015).

How the values were obtained:
A549 [1] = experiment: Cytotoxicity against human A549 cells after 4 days under normal conditions by MTT assay; type: cell-based; conditions: A549, 96 h
A549 [2] = experiment: Cytotoxicity against human A549 cells after 4 days under glucose-starved conditions by MTT assay; type: functional, cell-based; conditions: A549, 96 h

Question: Which results are given for `CCC(=O)Nc1ccc(C[C@H]2C(=O)OC[C@@H]2Cc2ccc(OC)c(OC)c2)cc1OC`?
Answer: IC50 (A549 [1]): > 50 µM; IC50 (A549 [2]): > 50 µM

Question: With `COc1cc(C[C@H]2C(=O)OC[C@@H]2Cc2ccc(OC)c(OC)c2)ccc1NC(C)=O` as the compound, how does the IC50 (A549 [1]) read?
Answer: > 50 µM

Question: What about the IC50 (A549 [2]) of the same compound?
Answer: > 50 µM

Question: Which results are given for `COc1cc(C[C@H]2C(=O)OC[C@@H]2Cc2ccc(OC)c(OC)c2)ccc1N`?
Answer: IC50 (A549 [1]): > 50 µM; IC50 (A549 [2]): 2.85 µM

Question: How did the IC50 (A549 [1]) turn out when `COc1cc(C[C@H]2C(=O)OC[C@@H]2Cc2ccc(OC)c(OC)c2)ccc1NC(=O)c1ccccc1` was run?
Answer: > 50 µM

Question: And the IC50 (A549 [2])?
Answer: > 50 µM

Question: With `COc1cc(C[C@H]2C(=O)OC[C@@H]2Cc2ccc(OC)c(OC)c2)ccc1Nc1ccc([N+](=O)[O-])cc1` as the compound, how does the IC50 (A549 [1]) read?
Answer: > 50 µM

Question: And the IC50 (A549 [2])?
Answer: 22.1 µM

Question: Which results are given for `COc1cc(C[C@H]2C(=O)OC[C@@H]2Cc2ccc(OC)c(OC)c2)ccc1Nc1ccc(F)cc1`?
Answer: IC50 (A549 [1]): > 50 µM; IC50 (A549 [2]): > 50 µM

Question: How did the IC50 (A549 [1]) turn out when `COc1cc(C[C@H]2C(=O)OC[C@@H]2Cc2ccc(OC)c(OC)c2)ccc1Nc1ccccc1` was run?
Answer: > 50 µM

Question: And the IC50 (A549 [2])?
Answer: > 50 µM

Question: With `COc1cc(C[C@H]2C(=O)OC[C@@H]2Cc2ccc(OC)c(OC)c2)ccc1NC(=O)Cc1ccccc1` as the compound, how does the IC50 (A549 [1]) read?
Answer: > 50 µM

Question: And the IC50 (A549 [2])?
Answer: > 50 µM

Question: `COc1cc(C[C@H]2C(=O)OC[C@@H]2Cc2ccc(OC)c(OC)c2)ccc1NCc1ccccc1` was tested. Which IC50 (A549 [1]) did it give?
Answer: > 50 µM

Question: What about the IC50 (A549 [2]) of the same compound?
Answer: > 50 µM

Question: What does the source list for `COc1ccc(Nc2ccc(C[C@H]3C(=O)OC[C@@H]3Cc3ccc(OC)c(OC)c3)cc2OC)cc1`?
Answer: IC50 (A549 [1]): > 50 µM; IC50 (A549 [2]): > 50 µM

Question: With `COc1cc(C[C@H]2C(=O)OC[C@@H]2Cc2ccc(OC)c(OC)c2)ccc1O` [ARCTIGENIN] as the compound, how does the IC50 (A549 [1]) read?
Answer: > 50 µM

Question: What about the IC50 (A549 [2]) of the same compound?
Answer: 6.57 µM

Question: With `COc1cccc(C[C@H]2C(=O)OC[C@@H]2Cc2ccc(OC)c(OC)c2)c1` as the compound, how does the IC50 (A549 [1]) read?
Answer: > 50 µM

Question: What about the IC50 (A549 [2]) of the same compound?
Answer: > 50 µM
